In PubChem BioAssay AID1259407 (Chemical Carcinogenesis Research Information System (CCRIS), 2018):
Calls of active or inactive are those of the source. How the calls were made is not given here.

System: CCRIS mutagenicity, Ames/micronucleus/aberration tests
Assay: CCRIS mutagenicity studies
[1] = Test System: AMES SALMONELLA TYPHIMURIUM, Strain/Indicator: TA98, Metabolic Activation: NONE, Method: PREINCUBATION
[2] = Test System: AMES SALMONELLA TYPHIMURIUM, Strain/Indicator: TA98, Metabolic Activation: NONE, Method: STANDARD PLATE
[3] = Test System: AMES SALMONELLA TYPHIMURIUM, Strain/Indicator: TA100, Metabolic Activation: NONE, Method: STANDARD PLATE
[4] = Test System: AMES SALMONELLA TYPHIMURIUM, Strain/Indicator: TA1535, Metabolic Activation: NONE, Method: STANDARD PLATE

Measured: mutagenic call

C=CCc1ccc(O)c(OC)c1
inactive: End Point: IN VITRO CHROMOSOMAL ABERRATIONS, Test System: CHINESE HAMSTER OVARY CELLS, Metabolic Activation: NONE inactive; negative | End Point: IN VIVO MICRONUCLEUS, Test System: BONE MARROW POLYCHROMATIC ERYTHROCYTES, Species: MOUSE, Strain/Sex: DDY/MALE, Route: IP inactive; negative | Test System: AMES SALMONELLA TYPHIMURIUM, Strain/Indicator: TA97, Metabolic Activation: NONE, Method: PREINCUBATION (120 MIN) inactive; negative | Test System: AMES SALMONELLA TYPHIMURIUM, Strain/Indicator: TA97, Metabolic Activation: S-9, Method: PREINCUBATION (120 MIN) inactive; negative | Test System: AMES SALMONELLA TYPHIMURIUM, Strain/Indicator: TA98, Metabolic Activation: HAMSTER, LIVER, S-9, AROCLOR 1254, Method: PREINCUBATION inactive; negative | [1] inactive; negative | Test System: AMES SALMONELLA TYPHIMURIUM, Strain/Indicator: TA98, Metabolic Activation: NONE, Method: PREINCUBATION (120 MIN) inactive; negative | [2] inactive; negative | Test System: AMES SALMONELLA TYPHIMURIUM, Strain/Indicator: TA98, Metabolic Activation: RAT, LIVER, S-9, AROCLOR 1254, Method: PREINCUBATION inactive; negative | Test System: AMES SALMONELLA TYPHIMURIUM, Strain/Indicator: TA98, Metabolic Activation: RAT, LIVER, S-9, AROCLOR 1254, Method: STANDARD PLATE inactive; negative | Test System: AMES SALMONELLA TYPHIMURIUM, Strain/Indicator: TA98, Metabolic Activation: S-9, Method: PREINCUBATION (120 MIN) inactive; negative | Test System: AMES SALMONELLA TYPHIMURIUM, Strain/Indicator: TA98, Metabolic Activation: S-9, Method: STANDARD PLATE inactive; negative | Test System: AMES SALMONELLA TYPHIMURIUM, Strain/Indicator: TA100, Metabolic Activation: HAMSTER, LIVER, S-9, AROCLOR 1254, Method: PREINCUBATION inactive; negative | Test System: AMES SALMONELLA TYPHIMURIUM, Strain/Indicator: TA100, Metabolic Activation: NONE, Method: PREINCUBATION inactive; negative | Test System: AMES SALMONELLA TYPHIMURIUM, Strain/Indicator: TA100, Metabolic Activation: NONE, Method: PREINCUBATION (120 MIN) inactive; negative | [3] inactive; negative | Test System: AMES SALMONELLA TYPHIMURIUM, Strain/Indicator: TA100, Metabolic Activation: RAT, LIVER, S-9, AROCLOR 1254, Method: PREINCUBATION inactive; negative | Test System: AMES SALMONELLA TYPHIMURIUM, Strain/Indicator: TA100, Metabolic Activation: RAT, LIVER, S-9, AROCLOR 1254, Method: STANDARD PLATE inactive; negative | Test System: AMES SALMONELLA TYPHIMURIUM, Strain/Indicator: TA100, Metabolic Activation: S-9, Method: PREINCUBATION (120 MIN) inactive; negative | Test System: AMES SALMONELLA TYPHIMURIUM, Strain/Indicator: TA100, Metabolic Activation: S-9, Method: STANDARD PLATE inactive; negative | Test System: AMES SALMONELLA TYPHIMURIUM, Strain/Indicator: TA1535, Metabolic Activation: HAMSTER, LIVER, S-9, AROCLOR 1254, Method: PREINCUBATION inactive; negative | Test System: AMES SALMONELLA TYPHIMURIUM, Strain/Indicator: TA1535, Metabolic Activation: NONE, Method: PREINCUBATION inactive; negative | [4] inactive; negative | Test System: AMES SALMONELLA TYPHIMURIUM, Strain/Indicator: TA1535, Metabolic Activation: PAPS, Method: STANDARD PLATE inactive; negative | Test System: AMES SALMONELLA TYPHIMURIUM, Strain/Indicator: TA1535, Metabolic Activation: RAT, LIVER, S-9, AROCLOR 1254, Method: PREINCUBATION inactive; negative | Test System: AMES SALMONELLA TYPHIMURIUM, Strain/Indicator: TA1535, Metabolic Activation: RAT, LIVER, S-9, AROCLOR 1254, Method: STANDARD PLATE inactive; negative | Test System: AMES SALMONELLA TYPHIMURIUM, Strain/Indicator: TA1537, Metabolic Activation: HAMSTER, LIVER, S-9, AROCLOR 1254, Method: PREINCUBATION inactive; negative | Test System: AMES SALMONELLA TYPHIMURIUM, Strain/Indicator: TA1537, Metabolic Activation: NONE, Method: PREINCUBATION inactive; negative | Test System: AMES SALMONELLA TYPHIMURIUM, Strain/Indicator: TA1537, Metabolic Activation: NONE, Method: STANDARD PLATE inactive; negative | Test System: AMES SALMONELLA TYPHIMURIUM, Strain/Indicator: TA1537, Metabolic Activation: RAT, LIVER, S-9, AROCLOR 1254, Method: PREINCUBATION inactive; negative | Test System: AMES SALMONELLA TYPHIMURIUM, Strain/Indicator: TA1537, Metabolic Activation: RAT, LIVER, S-9, AROCLOR 1254, Method: STANDARD PLATE inactive; negative | Test System: AMES SALMONELLA TYPHIMURIUM, Strain/Indicator: TA1538, Metabolic Activation: NONE, Method: STANDARD PLATE inactive; negative | Test System: AMES SALMONELLA TYPHIMURIUM, Strain/Indicator: TA1538, Metabolic Activation: RAT, LIVER, S-9, AROCLOR 1254, Method: STANDARD PLATE inactive; negative
active: End Point: IN VITRO CHROMOSOMAL ABERRATIONS, Test System: CHINESE HAMSTER OVARY CELLS, Metabolic Activation: RAT, LIVER, S-9, AROCLOR 1254 active; positive | End Point: IN VITRO CHROMOSOMAL ABERRATIONS, Test System: CHO-WBL CELLS, Metabolic Activation: RAT, LIVER, S-9, PHENOBARBITAL AND BETA-NAPHTHOFLAVONE active; positive (at 24 hr) | End Point: IN VITRO CHROMOSOMAL ABERRATIONS, Test System: SYRIAN HAMSTER EMBRYO (SHE) CELLS, Metabolic Activation: NONE active; positive (structural changes) | End Point: IN VITRO CHROMOSOMAL ABERRATIONS, Test System: SYRIAN HAMSTER EMBRYO (SHE) CELLS, Metabolic Activation: RAT, LIVER, S-9 active; positive (structural changes) | Test System: AMES SALMONELLA TYPHIMURIUM, Strain/Indicator: TA1535, Metabolic Activation: RAT, LIVER, S-9, AROCLOR 1254, PAPS, Method: STANDARD PLATE active; positive | Test System: MOUSE LYMPHOMA, Strain/Indicator: L5178Y (TK+/TK-), Metabolic Activation: NONE, Method: MICROWELL active; positive | Test System: MOUSE LYMPHOMA, Strain/Indicator: L5178Y (TK+/TK-), Metabolic Activation: S-9, Method: MICROWELL active; positive

C=CC(C)=O
inactive: Test System: AMES SALMONELLA TYPHIMURIUM, Strain/Indicator: TA98, Metabolic Activation: HAMSTER, LIVER, S-9, AROCLOR 1254 (30%), Method: PREINCUBATION inactive; negative | [1] inactive; negative | Test System: AMES SALMONELLA TYPHIMURIUM, Strain/Indicator: TA98, Metabolic Activation: RAT, LIVER, S-9, AROCLOR 1254 (30%), Method: PREINCUBATION inactive; negative | Test System: AMES SALMONELLA TYPHIMURIUM, Strain/Indicator: TA100, Metabolic Activation: RAT, LIVER, S-9, AROCLOR 1254 (30%), Method: PREINCUBATION inactive; negative | Test System: AMES SALMONELLA TYPHIMURIUM, Strain/Indicator: TA102, Metabolic Activation: S-9, Method: STANDARD PLATE inactive; negative
active: Test System: AMES SALMONELLA TYPHIMURIUM, Strain/Indicator: TA100, Metabolic Activation: HAMSTER, LIVER, S-9, AROCLOR 1254 (30%), Method: PREINCUBATION active; positive | Test System: AMES SALMONELLA TYPHIMURIUM, Strain/Indicator: TA100, Metabolic Activation: RAT, LIVER, S-9, Method: PREINCUBATION active; positive | Test System: AMES SALMONELLA TYPHIMURIUM, Strain/Indicator: TA2638, Metabolic Activation: S-9, Method: STANDARD PLATE active; positive | Test System: E. COLI, Strain/Indicator: WP2 (PKM101), Metabolic Activation: S-9, Method: STANDARD PLATE active; positive | Test System: E. COLI, Strain/Indicator: WP2 UVRA (PKM101), Metabolic Activation: S-9, Method: STANDARD PLATE active; positive

CCN(N=O)C(=O)N(C)C
active: [4] active; positive | Test System: AMES SALMONELLA TYPHIMURIUM, Strain/Indicator: TA1535, Metabolic Activation: RAT, LIVER, S-9, BETA-NAPHTHOFLAVONE AND PHENOBARBITAL, Method: STANDARD PLATE active; positive

O=C(Nc1ccc(Cl)cc1)c1csc([N+](=O)[O-])c1
active: [2] active; positive | [3] active; positive
